The source of these data is article PMC10320503, “Rapid-reaction kinetics of the butyryl-CoA dehydrogenase component of the electron-bifurcating crotonyl-CoA-dependent NADH:ferredoxin oxidoreductase from Megasphaera elsdenii” (The Journal of Biological Chemistry, 2023).

For test [1], the target named is T1, bcd (butyryl-CoA dehydrogenase) (Megasphaera elsdenii, UniProt Q06319).
T1 construct: isolated bcd component without EtfAB, C-terminal Strep II tag (pASG-IBA3), expressed in E. coli BL21; FAD-loaded, CoA persulfide removed by dithionite
T1 sequence (Q06319 1-383): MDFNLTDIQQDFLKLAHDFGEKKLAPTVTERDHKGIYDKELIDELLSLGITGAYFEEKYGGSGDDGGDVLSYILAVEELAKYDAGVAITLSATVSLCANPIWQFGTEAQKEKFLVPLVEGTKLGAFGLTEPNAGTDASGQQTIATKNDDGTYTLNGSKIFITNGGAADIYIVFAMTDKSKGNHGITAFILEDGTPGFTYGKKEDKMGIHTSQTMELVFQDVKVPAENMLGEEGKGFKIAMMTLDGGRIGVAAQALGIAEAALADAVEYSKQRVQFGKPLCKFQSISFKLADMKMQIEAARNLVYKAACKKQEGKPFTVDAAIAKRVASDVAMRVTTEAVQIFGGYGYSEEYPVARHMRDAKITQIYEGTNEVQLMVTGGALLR
As to the kind of experiment: UV-visible titration and EPR of the bound flavin. The settings on record: dithionite titrations at pH 6.0, 7.5 and 9.0, 25 °C; EPR at 77 K. It is filed as binding.

In test [2] the target is T1, bcd (butyryl-CoA dehydrogenase). As to the kind of experiment: stopped-flow reoxidation of reduced bcd; charge-transfer complex absorbance. Format: biochemical. The conditions noted are these: dithionite-reduced bcd, 50 mM Tris-HCl, 150 mM NaCl, pH 7.5, 10 °C, anaerobic.
For test [3] the target is unchanged. In words: stopped-flow reduction of bcd FAD at […] nm, hyperbolic fit of kobs versus [butyryl-CoA]. Format: biochemical. The conditions noted are these: oxidized bcd 10 μM, 50 mM Tris-HCl, 150 mM NaCl, pH 7.5, 10 °C, anaerobic; reverse of the physiological direction; read-out: Kd (apparent).
Test [4] deals with T2, EtfAB, the electron-transferring flavoprotein component of the crotonyl-CoA-dependent NADH:ferredoxin … (Megasphaera elsdenii, UniProt O85692 1-338; O85691 1-270).
T2 construct: Electron-transferring flavoprotein alpha subunit (EtfA), Megasphaera elsdenii; Electron-transferring flavoprotein beta subunit (EtfB), Megasphaera elsdenii; prereduced with sodium dithionite before the assay; Plasmid derived from pASG-IBA3; also called prereduced EtfAB; source: E. coli BL21, purified (Strep-Tactin XT Superflow)
T2 sequence (looked up) 1: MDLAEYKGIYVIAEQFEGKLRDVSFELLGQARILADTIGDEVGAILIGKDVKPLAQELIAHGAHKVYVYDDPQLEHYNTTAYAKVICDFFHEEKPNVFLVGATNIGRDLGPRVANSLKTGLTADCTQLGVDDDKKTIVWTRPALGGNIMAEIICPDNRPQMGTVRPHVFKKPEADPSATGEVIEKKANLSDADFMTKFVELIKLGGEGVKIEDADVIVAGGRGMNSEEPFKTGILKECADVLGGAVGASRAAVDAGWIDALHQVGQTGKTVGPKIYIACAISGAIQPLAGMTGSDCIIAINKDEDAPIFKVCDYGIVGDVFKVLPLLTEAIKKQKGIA
T2 sequence (looked up) 2: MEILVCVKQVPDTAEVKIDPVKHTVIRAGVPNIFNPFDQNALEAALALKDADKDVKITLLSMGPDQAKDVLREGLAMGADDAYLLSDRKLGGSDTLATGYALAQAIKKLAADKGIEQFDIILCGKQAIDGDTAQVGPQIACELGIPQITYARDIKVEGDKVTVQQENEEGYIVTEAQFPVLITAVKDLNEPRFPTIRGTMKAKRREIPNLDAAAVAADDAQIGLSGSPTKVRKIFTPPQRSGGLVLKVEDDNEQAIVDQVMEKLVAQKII
In words: stopped-flow spectrophotometry (rate of electron transfer against protein concentration); prereduced EtfAB mixed with oxidized bcd, anaerobic, monitored at 450 nm; 1:1 ratio at 2 to 70 uM, or 3 uM EtfAB with 3 to 24 uM bcd; 50 mM Tris-HCl, 150 mM NaCl, pH 7.5, 25 C; Kd limit inferred from the rate constant being independent of concentration. The conditions noted are these: both partners purified.

A value given as a limit tells only on which side of the number the result lay.

With `Cc1cc2nc3c(=O)[nH]c(=O)nc-3n(C[C@H](O)[C@H](O)[C@H](O)COP(=O)(O)OP(=O)(O)OC[C@H]3O[C@@H](n4cnc5c(N)ncnc54)[C@H](O)[C@@H]3O)c2cc1C` [FAD], the “UV-visible titration and EPR of the bound flavin” value in test [1] is listed as “the one-electron reduced FAD neutral semiquinone (FADH•) accumulates transiently”.
On to `C/C=C/C(=O)SCCNC(=O)CCNC(=O)[C@H](O)C(C)(C)COP(=O)(O)OP(=O)(O)OC[C@H]1O[C@@H](n2cnc3c(N)ncnc32)[C@H](O)[C@@H]1OP(=O)(O)O` [crotonyl-CoA], for which the “stopped-flow reoxidation of reduced bcd; charge-transfer complex absorbance” value in test [2] was “indicating extremely rapid and tight binding of crotonyl-CoA to bcd”.
With `CCCC(=O)SCCNC(=O)CCNC(=O)[C@H](O)C(C)(C)COP(=O)(O)OP(=O)(O)OC[C@H]1O[C@@H](n2cnc3c(N)ncnc32)[C@H](O)[C@@H]1OP(=O)(O)O` [butyryl-CoA], in test [3], the Kd is 60 µM.

B1: butyryl-CoA dehydrogenase (bcd) component of EtfAB-bcd from Megasphaera elsdenii (enzyme)
chain: T1 sequence (Q06319 1-383)
notes: Butyryl-CoA dehydrogenase, Megasphaera elsdenii, locus tag Mels_2128; oxidized form in the assay; Plasmid derived from pASG-IBA3; also called oxidized bcd; source: E. coli BL21, purified (Strep-Tactin XT Superflow)
Take B1: the Kd in test [4] was below 2 µM.
